Values after ≈ are worked out from the molar mass of the structure shown.
What was measured:
Bacillus anthracis [1] = assay: Antibacterial activity against pX01 and pX02 deficient Bacillus anthracis delta-Sterne after 24 hrs; type: functional
Bacillus anthracis [2] = assay: Effect on growth of pX01 and pX02 deficient Bacillus anthracis delta-Sterne infected in hollow-fiber pharmacodynamic model assessed as maximal vegetative plus spore phase population size at 500 mg every 12 hrs; type: functional

O=C(O)c1cn(C2CC2)c2cc(N3CCNCC3)c(F)cc2c1=O [CIPROFLOXACIN]
MBC (Bacillus anthracis [1]): 1 µg/mL (≈ 3.02 µM) | log10CFU/ml (Bacillus anthracis [2]): 554300000
